Source: patent US20050288323A1, “Octahydro-indolizine and quinolizine and hexahydro-pyrrolizine” (priority 2000, published 2005)

biological target: T1, human histamine H3 receptor (Homo sapiens, UniProt Q9Y5N1); test: [3H]-N-methylhistamine binding; settings: Table 2; [3H]-N-methylhistamine binding
T1 construct: One microgram of supercoiled H3 receptor cDNA was added to the cells and mixed; expressed in transfected cells; membranes
Experimental: Thus in the present invention receptor binding was determined using the human histamine H3 receptor (See Lovenberg et al Mol. Pharmacol. 1999, 1107). Screening using the human receptor is particularly important for the identification of new therapies for the treatment of human disease. Conventional binding assays for example are determined using rat synaptosomes (Garbarg et al J. Pharmacol. Exp. Ther. 1992, 263, 304), rat cortical membranes (West et al Mol. Pharmacol. 1990, 610), and guinea pig brain (Korte et al Biochem. Biophys. Res. Commun. 1990, 978). Only limited studies have been performed previously using human tissue but these allude to significant differences in the pharmacology of rodent and primate receptors (West et al Eur. J. Pharmacol. 1999, 233).
Transfection of Cells with Human Histamine Receptor
A 10 cm tissue culture dish with a confluent monolayer of SK-N-MC cells was split two days prior to transfection. Using sterile technique the media was removed and the cells were detached from the dish by the addition of trypsin. One fifth of the cells were then placed onto a new 10 cm dish. Cells were grown in a 37° C. incubator with 5% CO2 in Minimal Essential Media Eagle with 10% Fetal Bovine Serum. After two days cells were approximately 80% confluent. These were removed from the dish with trypsin and pelleted in a clinical centrifuge. The pellet was then re-suspended in 400 μL complete media and transferred to an electroporation cuvette with a 0.4 cm gap between the electrodes (Bio-Rad #165-2088). One microgram of supercoiled H3 receptor cDNA was added to the cells and mixed. The voltage for the electroporation was set at 0.25 kV, the capacitance was set at 960 μF. After electroporation the cells were diluted into 10 mL complete media and plated onto four 10 cm dishes. Because of the variability in the efficiency of electroporation, four different concentrations of cells were plated. The ratios used were; 1:20, 1:10, 1:5, with the remainder of the cells being added to the fourth dish. The cells were allowed to recover for 24 hours before adding the selection media (complete media with 600 μg/mL G418). After 10 days dishes were analyzed for surviving colonies of cells. Dishes with well isolated colonies were used. Cells from individual colonies were isolated and tested. SK-N-MC cells were used because they give efficient coupling for inhibition of adenylate cyclase. The clones that gave the most robust inhibition of adenylate cyclase in response to histamine were used for further study.
[^3H]-N-methylhistamine Binding
Cell pellets from histamine H3 receptor-expressing SK-N-MC cells were homogenized in 20 mM TrisHCl/0.5 mM EDTA. Supernatants from a 800 g spin were collected, recentrifuged at 30,000 g for 30 minutes. Pellets were re-homogenized in 50 mM Tris/5 mM EDTA (pH 7.4). Membranes were incubated with 0.8 nM [^3H]-N-methylhistamine plus/minus test compounds for 45 min at 25° C. and harvested by rapid filtration over GF/C glass fiber filters (pretreated with 0.3% polyethylenimine) followed by four washes with ice cold buffer. Filters were dried, added to 4 mL scintillation cocktail and then counted on a liquid scintillation counter. Non-specific binding was defined with 10 μM histamine. The pKi values were calculated based on a Kd of 800 pM and a ligand concentration ([L]) of 800 pM according to the formula: Ki=(IC50)/(1+([L]/(Kd))

T1 sequence (Q9Y5N1 whole entry): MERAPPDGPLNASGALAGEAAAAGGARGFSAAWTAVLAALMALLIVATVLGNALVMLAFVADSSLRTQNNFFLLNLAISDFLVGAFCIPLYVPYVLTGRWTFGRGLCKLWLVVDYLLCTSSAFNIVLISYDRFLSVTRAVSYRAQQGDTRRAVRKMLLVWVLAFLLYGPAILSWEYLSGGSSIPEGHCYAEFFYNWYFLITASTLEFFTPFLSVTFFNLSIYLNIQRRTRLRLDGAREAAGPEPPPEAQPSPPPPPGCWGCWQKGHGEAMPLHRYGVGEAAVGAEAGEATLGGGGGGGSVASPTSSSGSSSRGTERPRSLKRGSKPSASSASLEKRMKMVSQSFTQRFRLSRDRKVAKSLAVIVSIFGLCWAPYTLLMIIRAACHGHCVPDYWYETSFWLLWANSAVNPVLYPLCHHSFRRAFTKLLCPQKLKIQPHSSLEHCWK

Compound	Ki [nM]
c1ccc(Sc2ccc([C@H]3CC[C@H]4CCCCN43)cc2)nc1 (racemic) [Example 28]	205

same assay, conditions: Table 3; [3H]-N-methylhistamine binding

Ki [nM]	Compound
132	O=Cc1ccsc1-c1ccc([C@H]2CC[C@H]3CCCCN32)cc1 (racemic) [Example 51]
221	O=Cc1ccc(-c2ccc([C@H]3CC[C@H]4CCCCN43)cc2)cc1 (racemic) [Example 52]
665	Nc1cccc(-c2ccc([C@H]3CC[C@H]4CCCCN43)cc2)c1 (racemic) [Example 48]
503	c1cc(-c2ccc([C@H]3CC[C@H]4CCCCN43)cc2)cs1 (racemic) [Example 49]
415	Fc1ccc(-c2ccc([C@H]3CC[C@H]4CCCCN43)cc2)cc1 (racemic) [Example 53]

same assay, conditions: Table 5; [3H]-N-methylhistamine binding

Ki [nM]	Compound
648	c1cc(CNc2ccc([C@H]3CC[C@H]4CCCCN43)cc2)cs1 (racemic) [Example 129]
647	c1coc(CNc2ccc([C@H]3CC[C@H]4CCCCN43)cc2)c1 (racemic) [Example 130]
511	c1ccc(CNc2ccc([C@H]3CC[C@H]4CCCCN43)cc2)cc1 (racemic) [Example 132]

same assay, conditions: [3H]-N-methylhistamine 0.8 nM, membranes of H3 receptor-expressing SK-N-MC cells

Compound	Ki [nM]
c1cc([C@@H]2CCC[C@@H]3CCCN32)ccc1OCCCN1CCCCC1 (racemic) [Example 64, 5-[4-(3-Piperidinylpropoxy)phenyl]octahydroindolizine]	0.7
trans-3-[4-(Vinylsulfonylamino)phenyl]octahydroindolizine [Example 119]	> 5000
N=C1NC(=N)/C(=C/c2ccc([C@H]3CC[C@H]4CCCCN43)cc2)S1 (relative stereo) [Example 46, trans-3-[4-(4-Methylene-1,3-thiazolidine-2,4-diimine)phenyl]octahydroindolizine]	330
c1cc(Sc2ccc([C@@H]3CC[C@@H]4CCCCN43)cc2)ccn1 [Example 138, (S, S)-Octahydro-3-[4-(4-pyridinylthio)phenyl]indolizine]	100
c1cc([C@@H]2CCC[C@@H]3CCCN32)ccc1OCCN1CCCCC1 (racemic) [Example 63, 5-[4-(2-Piperidinylethanoxy)phenyl]octahydroindolizine]	5
CN(c1ccc([C@@H]2CC[C@@H]3CCCCN32)cc1)S(=O)(=O)CCN1CCCCC1 (relative stereo) [Example 121, trans-3-{4-[(2-Piperidylethyl)sulfonyl-N-methylamino]phenyl}octahydroindolizine]	19
c1cc(Sc2ccc([C@@H]3CCC[C@@H]4CCCN43)cc2)ccn1 (racemic) [Example 26, 5-[4-(4-Pyridinylthio)phenyl]octahydroindolizine]	35
Brc1ccc([C@H]2CC[C@H]3CCCCN32)cc1 (racemic) [Example 1, trans-3-(4-bromophenyl)octahydroindolizine]	325
O=C(O)c1ccc(Sc2ccc([C@H]3CC[C@H]4CCCCN43)cc2)cc1 (racemic) [Example 42, tran-3-[4-(4-Carboxylicphenylthio)phenyl]octahydroindolizine]	21

Continued, values first:

Ki [nM]	Compound
90	c1cc([C@H]2CC[C@H]3CCCCN32)ccc1OCCC1CCCCN1 (stereo partly drawn) [Example 86, trans-3-[4-(2,2′-piperidinylethoxy)phenyl]octahydroindolizine]
787	CS(=O)(=O)N(c1ccc([C@@H]2CC[C@@H]3CCCCN32)cc1)S(C)(=O)=O (relative stereo) [Example 98, trans-3-(4-(bis-Methylsulfonylamino)phenyl)octahydroindolizine]
314	c1cc([C@@H]2CC[C@@H]3CCCCN32)ccc1NC1CCNCC1 (relative stereo) [Example 101, trans-3-[4-(4-Piperidinylamino)phenyl]octahydroindolizine]
517	CC(C)(C)OC(=O)N1CCC(Nc2ccc([C@H]3CC[C@H]4CCCCN43)cc2)CC1 (racemic) [Example 100]
1560	O=[N+]([O-])c1ccc(Oc2ccc([C@H]3CC[C@H]4CCCCN43)cc2)cc1 (racemic) [Example 77, trans-3-[4-(4-Nitrophenoxy)phenyl]octahydroindolizine]
0.2	c1cc([C@H]2CC3CCCCN3C2)ccc1OCCCN1CCCCC1 (mixture of isomers) [Example 68, anti-2-(4-(3-Piperidinylpropoxy)phenyl)octahydroindolizine]
47	FC(F)(F)CN1CCCCC1CCOc1ccc([C@H]2CC[C@H]3CCCCN32)cc1 (mixture of isomers) [Example 89, trans-3-{4-[2,2′-(N-Trifluoroethylpiperidinyl)ethoxy]phenyl}octahydroindolizine]
63	CN(C(=O)CCCCN1CCCCC1)c1ccc([C@H]2CC[C@H]3CCCCN32)cc1 (racemic) [Example 113, trans-3-[4-(N-Methyl-N-5-piperidylpentanamido)phenyl]octahydroindolizine]
80	N=C(N)N1CCCCC1CCOc1ccc([C@H]2CC[C@H]3CCCCN32)cc1 (mixture of isomers) [Example 90, trans-3-{4-[2,2′-(N-Amidinopiperidinyl)ethoxy]phenyl}octahydroindolizine]
1780	CCN(c1ccc([C@H]2CC[C@H]3CCCCN32)cc1)C1CCN(S(C)(=O)=O)CC1 (racemic) [Example 104, trans-3-[4-(N-Ethyl-N-4-N-methylsufonylpiperidinylamino)phenyl]octahydroindolizine]
0.3	c1cc([C@H]2CC[C@H]3CCCCN32)ccc1OCCCN1CCCCC1 (racemic) [Example 92, trans-3-(4-(3-Piperidinylpropoxy)phenyl)octahydroindolizine]
1	c1cc([C@@H]2CCC[C@@H]3CCCN32)ccc1OCCCCCN1CCCCC1 [Example 65]
2	CN1CCCC1CCOc1ccc([C@H]2CC[C@H]3CCCCN32)cc1 (mixture of isomers) [Example 91, trans-3-{4-[2,2′-(N-Methylpyrrolidinyl)ethoxy]phenyl}octahydroindolizine]
0.3	c1cc(OCCCN2CCCCC2)cc([C@H]2C[C@@H]3CCCCN3C2)c1 (racemic) [Example 72, anti-2-[3-(3-Piperidinylpropyloxy)phenyl]octahydroindolizine]
368	O=C(c1ccc(Cl)cc1)c1ccc([C@H]2CC[C@H]3CCCCN32)cc1 (racemic) [Example 124, trans-3-{4-[(4-Chlorophenyl)methan-1-oxo]phenyl}octahydroindolizine]
128	CS(=O)(=O)N(c1cccc(COc2ccc([C@H]3CC[C@H]4CCCCN43)cc2)c1)S(C)(=O)=O (racemic) [Example 82, trans-3-[4-(3-bis-Methansulfonaminobenzyloxy)phenyl]octahydroindolizine]
71	O=C(N1CCCCC1CCOc1ccc([C@H]2CC[C@H]3CCCCN32)cc1)C(F)(F)F (mixture of isomers) [Example 88, trans-3-{4-[2,2′-(N-Trifluoroacetylpiperidinyl)ethoxy]phenyl}octahydroindolizine]
98	CN(c1ccc([C@H]2CC[C@H]3CCCCN32)cc1)C1CCN(S(C)(=O)=O)CC1 (racemic) [Example 103]
